row,melting point,Structure (SMILES)
1,153 to 154 °C,"COc1ccc(-c2c(Cl)c(CNS(=O)(=O)c3ccccc3)nc3sc4c(c23)CCN(Cc2ccccc2)C4)cc1OC [Example 19B, 7-benzyl-3-chloro-4-(3,4-dimethoxyphenyl)-2-phenylsulfonylaminomethyl-5,6,7,8-tetrahydrothieno[2,3-b:5,4-c′]dipyridine]"
2,185 to 187 °C,"CCOC(=O)c1c(CN2C(=O)CN(C)C2=O)nc2sc3c(c2c1-c1ccc(OC)c(OC)c1)CCN(C(=O)c1ccccc1)C3 [Example 52A, ethyl 7-benzoyl-4-(3,4-dimethoxyphenyl)-2-(1-methylhydantoin-3-ylmethyl)-5,6,7,8-tetrahydrothieno[2,3-b:5,4-c′]dipyridine-3-carboxylate]"
3,180 to 182 °C,"CCOC(=O)c1c(Cn2cncn2)nc2sc3ncccc3c2c1-c1ccc(OC)c(OC)c1 [Example 65A, ethyl 4-(3,4-dimethoxyphenyl)-2-(1,2,4-triazol-1-ylmethyl)thieno[2,3-b:5,4-b′]dipyridine-3-carboxylate]"
4,135 to 136 °C,"CCNCc1nc2sc3c(c2c(-c2ccc(OC)c(OC)c2)c1Cl)CCN(Cc1ccccc1)C3 [Example 1B, 7-benzyl-3-chloro-4-(3,4,-dimethoxyphenyl)-2-ethylaminomethyl-5,6,7,8-tetrahydrothieno[2,3-b:5,4-c′]dipyridine]"
5,101 to 102 °C,"COc1ccc(-c2c(Cl)c(CNC(=O)Cn3cncn3)nc3sc4c(c23)CCN(Cc2ccccc2)C4)cc1OC [Example 20B, 7-benzyl-3-chloro-4-(3,4-dimethoxyphenyl)-5,6,7,8-tetrahydro-2-(1,2,4-triazol-1-ylacetylaminomethyl)thieno[2,3-b:5,4-c′]dipyridine]"
6,124 to 125 °C,"COc1ccc(-c2c(Cl)c(CNC(=O)c3cccnc3)nc3sc4c(c23)CCN(Cc2ccccc2)C4)cc1OC [Example 22B, 7-benzyl-3-chloro-4-(3,4-dimethoxyphenyl)-2-(nicotinoylaminomethyl)-5,6,7,8-tetrahydrothieno[2,3-b:5,4-c′]dipyridine]"
7,140 to 141 °C,CCOC(=O)c1c(CN(CC)CC)nc2sc3c(c2c1-c1ccc(CC)cc1)CCN(S(=O)(=O)c1ccccc1)C3 [Example 42A]
8,165 to 166 °C,"COc1cc(-c2c(Cl)c(CNC(C)(C)C)nc3sc4c(c23)CCN(C(=O)c2ccccc2)C4)ccc1OC(C)C [Example 9B, 7-benzoyl-2-(tert-butylaminomethyl)-3-chloro-4-(4-isopropoxy-3-methoxyphenyl)-5,6,7,8-tetrahydrothieno[2,3-b:5,4-c′]dipyridine]"
9,165 to 167 °C,"COc1ccc(-c2c(Cl)c(COc3ccccn3)nc3sc4c(c23)CCN(Cc2ccccc2)C4)cc1OC [Example 6B, 7-benzyl-3-chloro-4-(3,4-dimethoxyphenyl)-2-(2-pyridyloxymethyl)-5,6,7,8-tetrahydrothieno[2,3-b:5,4-c′]dipyridine]"
10,169 to 170 °C,"CCOC(=O)c1c(Cn2cncn2)nc2sc3c(c2c1-c1ccc(OC)c(OC)c1)CN(C(=O)OCc1ccccc1)CC3 [Example 59A, ethyl 6-benzyloxycarbonyl-4-(3,4-dimethoxyphenyl)-5,6,7,8-tetrahydro-2-(1,2,4-triazol-1-ylmethyl)thieno[2,3-b:4,5-c′]dipyridine-3-carboxylate]"
11,193 to 194 °C,"CCOC(=O)c1c(Cn2cncn2)nc2sc3c(c2c1-c1ccc(OC)c(OC)c1)CCN(C(=O)c1ccccc1)C3 [Example 20A, ethyl 7-benzoyl-4-(3,4-dimethoxyphenyl)-5,6,7,8-tetrahydro-2-(1,2,4-triazol-1-ylmethyl)thieno[2,3-b:5,4-c′]dipyridine-3-carboxylate]"
12,184 to 185 °C,"CCOC(=O)c1c(CCc2c[nH]nn2)nc2sc3c(c2c1-c1ccc(OC)c(OC)c1)CCN(C(=O)c1ccccc1)C3 [Example 24A, ethyl 7-benzoyl-4-(3,4-dimethoxyphenyl)-5,6,7,8-tetrahydro-2-[2-(1,2,3-triazol-4-yl)ethyl]thieno[2,3-b:5,4-c′]dipyridine-3-carboxylate]"
